In PMC7464159, “Triple Negative Breast Cancer and Breast Epithelial Cells Differentially Reprogram Glucose and Lipid Metabolism upon Treatment with Triterpenic Acids” (Biomolecules, 2020):

Test system: MDA-MB-231 cells
Assay: 1H NMR metabolomics of polar (aqueous) cell extracts
Type: cell-based, human
Protocol: MDA-MB-231 and MCF-10A cells were seeded in 10-cm-diameter Petri dishes at a density of 6 × 10^5 cells/mL (10 mL per dish) and cultured for 24 h at 37 °C. […] Vehicle solvent control cells received DMSO (0.10% v/v). Samples were collected immediately after 48 h incubation or, to assess cellular recovery, medium was replaced with fresh growth medium (without TAs), and cells were incubated for additional 24 h before collection (48 + 24 h samples). Four independent assays were performed.
After incubation, culture medium was collected and centrifuged (1000× g, 5 min) and the supernatant stored at −80 °C until analysis. Culture medium without cells was placed under the same conditions and collected. Cell extraction was performed as described by Carrola et al.. Briefly, cells were washed four times with PBS and extracted with a mixture of methanol:chloroform:water (1:1:0.7). The resulting polar and organic phases were collected and then dried under vacuum or under a stream of nitrogen gas, respectively. All samples were stored at −80 °C and, at the time of analysis, dried polar extracts were reconstituted in 600 µL of deuterated phosphate buffer (100 mM, pH 7.4) containing 0.1 mM TSP-d4, while organic extracts were reconstituted in deuterated chloroform containing 0.03% TMS. Regarding medium samples, 540 μL were mixed with 60 μL of D2O containing 0.25% TSP-d4. Prior to analysis, 550 μL of each sample were transferred to 5 mm NMR tubes.
^1H NMR spectra of all samples were acquired on a Bruker Avance III HD 500 NMR spectrometer (University of Aveiro, Portuguese NMR Network) operating at 500.13 MHz for ^1H observation equipped with a 5 mm TXI probe. Standard 1D spectra (Bruker pulse programs ‘noesypr1d’, with water suppression, for medium samples and aqueous extracts, and ‘zg’ for organic extracts) were recorded with a 7002.8 Hz spectral width, 32 k data points, a 2 s relaxation delay and 512 scans. Spectral processing comprised exponential multiplication with 0.3 Hz line broadening, zero filling to 64 k data points, manual phasing, baseline correction, and chemical shift calibration to the TSP or TMS signal at 0 ppm. 2D ^1H-^1H total correlation (TOCSY) spectra, ^1H-^13C heteronuclear single quantum correlation (HSQC) spectra and J-resolved spectra were also registered for selected samples to assist spectral assignment. Metabolites were identified with the support of 2D spectra and the spectral reference databases BBIOREFCODE-2-0-0 (Bruker Biospin, Rheinstetten, Germany) and HMDB [28]. Selected signals were then integrated using the AmixViewer software […] (version 3.9.14, Bruker BioSpin, Rheinstetten, Germany) and normalized by the total spectral area. The magnitude of each metabolite change was assessed through the percentage of variation (and its respective error) in exposed samples relatively to controls, and through the effect size (ES) adjusted for small sample numbers (and respective standard error). Metabolite variations with absolute ES greater than 0.8 were expressed in a heatmap, colored as a function of the percentage of variation, employing the R statistical software.

**Q.** Which results are given for C[C@H]1[C@H](C)CC[C@]2(C(=O)O)CC[C@]3(C)C(=CC[C@@H]4[C@@]5(C)CC[C@H](O)C(C)(C)[C@@H]5CC[C@]43C)[C@H]12 [UA, ursolic acid]?
**A.** ATP %var (UA 10µM, 48h): 0%; Acetate %var (UA 10µM, 48h): 0%; Ala %var (UA 10µM, 48h): 0%; Asp %var (UA 10µM, 48h): 0%; Choline %var (UA 10µM, 48h): -6.23%; Citrate %var (UA 10µM, 48h): -23.26%; Cr %var (UA 10µM, 48h): 0%; Fumarate %var (UA 10µM, 48h): 0%; GPC %var (UA 10µM, 48h): 9.94%; GSH %var (UA 10µM, 48h): -7.40%; Gln %var (UA 10µM, 48h): -13.00%; Glu %var (UA 10µM, 48h): 0%; Gly %var (UA 10µM, 48h): 0%; Ile %var (UA 10µM, 48h): 0%; Lactate %var (UA 10µM, 48h): 0%; Leu %var (UA 10µM, 48h): 0%; PC %var (UA 10µM, 48h): -7.00%; PCr %var (UA 10µM, 48h): -13.59%; Phe %var (UA 10µM, 48h): 0%; Pro %var (UA 10µM, 48h): 0%; Tau %var (UA 10µM, 48h): 0%; Tyr %var (UA 10µM, 48h): 0%; Val %var (UA 10µM, 48h): 0%; myo-Ino %var (UA 10µM, 48h): 0%; ATP %var (UA 10µM, 48h+24h): 0%; Acetate %var (UA 10µM, 48h+24h): 0%; Ala %var (UA 10µM, 48h+24h): 0.00%; Asp %var (UA 10µM, 48h+24h): 0.00%; Choline %var (UA 10µM, 48h+24h): 0%; Citrate %var (UA 10µM, 48h+24h): -10.99%; Cr %var (UA 10µM, 48h+24h): 0%; Fumarate %var (UA 10µM, 48h+24h): 0%; GPC %var (UA 10µM, 48h+24h): 0%; GSH %var (UA 10µM, 48h+24h): 0%; Gln %var (UA 10µM, 48h+24h): 0%; Glu %var (UA 10µM, 48h+24h): 0%; Gly %var (UA 10µM, 48h+24h): -7.50%; Ile %var (UA 10µM, 48h+24h): 0%; Lactate %var (UA 10µM, 48h+24h): 0%; Leu %var (UA 10µM, 48h+24h): 0%; PC %var (UA 10µM, 48h+24h): 0%; PCr %var (UA 10µM, 48h+24h): 0%; Phe %var (UA 10µM, 48h+24h): 0%; Pro %var (UA 10µM, 48h+24h): 0%; Tau %var (UA 10µM, 48h+24h): 0%; Tyr %var (UA 10µM, 48h+24h): 0%; Val %var (UA 10µM, 48h+24h): 0%; myo-Ino %var (UA 10µM, 48h+24h): 0%; ATP %var (UA 20µM, 48h): 0%; Acetate %var (UA 20µM, 48h): 10.69%; Ala %var (UA 20µM, 48h): 0%; Choline %var (UA 20µM, 48h): 0%; Citrate %var (UA 20µM, 48h): -19.44%; Cr %var (UA 20µM, 48h): 0%; GPC %var (UA 20µM, 48h): 10.72%; GSH %var (UA 20µM, 48h): -7.50%; Gln %var (UA 20µM, 48h): 0%; Glu %var (UA 20µM, 48h): 0%; Gly %var (UA 20µM, 48h): -15.08%; Ile %var (UA 20µM, 48h): 0%; Lactate %var (UA 20µM, 48h): 0%; Leu %var (UA 20µM, 48h): 0%; PC %var (UA 20µM, 48h): -6.17%; PCr %var (UA 20µM, 48h): -10.77%; Phe %var (UA 20µM, 48h): 0%; Pro %var (UA 20µM, 48h): 0%; Tau %var (UA 20µM, 48h): 11.82%; Tyr %var (UA 20µM, 48h): 0%; Val %var (UA 20µM, 48h): 0%; myo-Ino %var (UA 20µM, 48h): 0%; number of intracellular polar metabolites consistently altered (UA 20µM, 48h): 10; ATP %var (UA 20µM, 48h+24h): -9.33%; Acetate %var (UA 20µM, 48h+24h): 11.02%; Ala %var (UA 20µM, 48h+24h): -12.11%; Asp %var (UA 20µM, 48h+24h): 32.91%; Choline %var (UA 20µM, 48h+24h): 0%; Citrate %var (UA 20µM, 48h+24h): -15.02%; Cr %var (UA 20µM, 48h+24h): 0%; Fumarate %var (UA 20µM, 48h+24h): -10.34%; GPC %var (UA 20µM, 48h+24h): -6.52%; GSH %var (UA 20µM, 48h+24h): -8.79%; Gln %var (UA 20µM, 48h+24h): 0%; Glu %var (UA 20µM, 48h+24h): 0%; Gly %var (UA 20µM, 48h+24h): -25.85%; Ile %var (UA 20µM, 48h+24h): 0%; Lactate %var (UA 20µM, 48h+24h): 0%; Leu %var (UA 20µM, 48h+24h): 0%; PC %var (UA 20µM, 48h+24h): 21.66%; PCr %var (UA 20µM, 48h+24h): 0%; Phe %var (UA 20µM, 48h+24h): 0%; Pro %var (UA 20µM, 48h+24h): 0%; Tau %var (UA 20µM, 48h+24h): 0%; Tyr %var (UA 20µM, 48h+24h): 0%; Val %var (UA 20µM, 48h+24h): 0%; myo-Ino %var (UA 20µM, 48h+24h): -9.02%
